Laboratory results as given in PubChem BioAssay (NCI).
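A five-concentration, 48-hour dose response in 96-well plates underlies each endpoint, interpolated linearly between surrounding concentrations. At the TGI there is no net growth.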

How the values were obtained:
Assay in all cases: NCI-60 cell line screen, 48 h
SK-MEL-28 melanoma = tested on: SK-MEL-28 melanoma
UO-31 renal = tested on: UO-31 renal
EKVX NSCLC = tested on: EKVX NSCLC
CCRF-CEM leukemia = tested on: CCRF-CEM leukemia
K-562 leukemia = tested on: K-562 leukemia
HS 578T breast = tested on: HS 578T breast
A498 renal = tested on: A498 renal
MCF7 breast = tested on: MCF7 breast
OVCAR-4 ovarian = tested on: OVCAR-4 ovarian
A549 NSCLC = tested on: A549 NSCLC
MDA-N = tested on: MDA-N
OVCAR-5 ovarian = tested on: OVCAR-5 ovarian
NCI-H460 lung = tested on: NCI-H460 lung
HL-60(TB) leukemia = tested on: HL-60(TB) leukemia
RPMI-8226 leukemia = tested on: RPMI-8226 leukemia
HT29 colon = tested on: HT29 colon
KM12 colon = tested on: KM12 colon
SK-MEL-5 melanoma = tested on: SK-MEL-5 melanoma
MALME-3M melanoma = tested on: MALME-3M melanoma
SK-OV-3 ovarian = tested on: SK-OV-3 ovarian
NCI-H226 lung = tested on: NCI-H226 lung
DU-145 prostate = tested on: DU-145 prostate
LOX IMVI melanoma = tested on: LOX IMVI melanoma
OVCAR-3 ovarian = tested on: OVCAR-3 ovarian
CAKI-1 renal = tested on: CAKI-1 renal
SF-539 CNS = tested on: SF-539 CNS
NCI/ADR-RES ovarian = tested on: NCI/ADR-RES ovarian
786-0 renal = tested on: 786-0 renal
HOP-92 NSCLC = tested on: HOP-92 NSCLC
M14 melanoma = tested on: M14 melanoma
SK-MEL-2 melanoma = tested on: SK-MEL-2 melanoma
ACHN renal = tested on: ACHN renal
SNB-19 CNS = tested on: SNB-19 CNS
UACC-257 melanoma = tested on: UACC-257 melanoma
HCC-2998 colon = tested on: HCC-2998 colon
SR leukemia = tested on: SR leukemia
RXF 393 renal = tested on: RXF 393 renal
MDA-MB-435 = tested on: MDA-MB-435
U251 CNS = tested on: U251 CNS
SF-295 CNS = tested on: SF-295 CNS
HCT-116 colon = tested on: HCT-116 colon
SN12C renal = tested on: SN12C renal
TK-10 renal = tested on: TK-10 renal
BT-549 breast = tested on: BT-549 breast
MOLT-4 leukemia = tested on: MOLT-4 leukemia
MDA-MB-231 breast = tested on: MDA-MB-231 breast
SW-620 colon = tested on: SW-620 colon
SF-268 CNS = tested on: SF-268 CNS
HOP-62 NSCLC = tested on: HOP-62 NSCLC
NCI-H23 lung = tested on: NCI-H23 lung
NCI-H522 lung = tested on: NCI-H522 lung
T-47D breast = tested on: T-47D breast
OVCAR-8 ovarian = tested on: OVCAR-8 ovarian
UACC-62 melanoma = tested on: UACC-62 melanoma
HCT-15 colon = tested on: HCT-15 colon
COLO 205 colon = tested on: COLO 205 colon
SNB-75 CNS = tested on: SNB-75 CNS
IGROV1 ovarian = tested on: IGROV1 ovarian
PC-3 prostate = tested on: PC-3 prostate

O=C1/C(=C\c2cccc(Oc3ccccc3)c2)SC(c2ccccc2)N1c1ccccc1Cl (configuration not stated)
TGI (SK-MEL-28 melanoma): > 100 µM
TGI (UO-31 renal): > 100 µM
TGI (EKVX NSCLC): > 100 µM
TGI (CCRF-CEM leukemia): 38.4 µM
TGI (K-562 leukemia): > 100 µM
TGI (HS 578T breast): 60.2 µM
TGI (A498 renal): > 100 µM
TGI (MCF7 breast): > 100 µM
TGI (OVCAR-4 ovarian): > 100 µM
TGI (A549 NSCLC): > 100 µM
TGI (MDA-N): 54.2 µM
TGI (OVCAR-5 ovarian): > 100 µM
TGI (NCI-H460 lung): > 100 µM
TGI (HL-60(TB) leukemia): > 100 µM
TGI (RPMI-8226 leukemia): 55.3 µM
TGI (HT29 colon): 49.9 µM
TGI (KM12 colon): 98.8 µM
TGI (SK-MEL-5 melanoma): 29.8 µM
TGI (MALME-3M melanoma): > 100 µM
TGI (SK-OV-3 ovarian): > 100 µM
TGI (NCI-H226 lung): > 100 µM
TGI (DU-145 prostate): > 100 µM
TGI (LOX IMVI melanoma): 75.8 µM
TGI (OVCAR-3 ovarian): > 100 µM
TGI (CAKI-1 renal): > 100 µM
TGI (SF-539 CNS): 39 µM
TGI (NCI/ADR-RES ovarian): > 100 µM
TGI (786-0 renal): > 100 µM
TGI (HOP-92 NSCLC): 57.5 µM
TGI (M14 melanoma): > 100 µM
TGI (SK-MEL-2 melanoma): 92.4 µM
TGI (ACHN renal): > 100 µM
TGI (SNB-19 CNS): 76.4 µM
TGI (UACC-257 melanoma): 85.8 µM
TGI (HCC-2998 colon): 78.9 µM
TGI (SR leukemia): > 100 µM
TGI (RXF 393 renal): 78.5 µM
TGI (MDA-MB-435): 68 µM
TGI (U251 CNS): 78.5 µM
TGI (SF-295 CNS): > 100 µM
TGI (HCT-116 colon): 50.7 µM
TGI (SN12C renal): 96.9 µM
TGI (TK-10 renal): > 100 µM
TGI (BT-549 breast): 96.6 µM
TGI (MOLT-4 leukemia): > 100 µM
TGI (MDA-MB-231 breast): > 100 µM
TGI (SW-620 colon): > 100 µM
TGI (SF-268 CNS): > 100 µM
TGI (HOP-62 NSCLC): > 100 µM
TGI (NCI-H23 lung): 69.7 µM
TGI (NCI-H522 lung): 48.5 µM
TGI (T-47D breast): > 100 µM
TGI (OVCAR-8 ovarian): 79.9 µM
TGI (UACC-62 melanoma): > 100 µM
TGI (HCT-15 colon): > 100 µM
TGI (COLO 205 colon): 49 µM

Cc1ccc(N=C2SC(=S)N(CCC[N+](C)(C)C)C2=Nc2ccc(C)cc2)cc1
TGI (SK-MEL-28 melanoma): 23.7 µM
TGI (UO-31 renal): 37.8 µM
TGI (EKVX NSCLC): 38.5 µM
TGI (CCRF-CEM leukemia): 58 µM
TGI (K-562 leukemia): 32.9 µM
TGI (HS 578T breast): 24.6 µM
TGI (A498 renal): 40.7 µM
TGI (MCF7 breast): 48.3 µM
TGI (A549 NSCLC): 33.8 µM
TGI (MDA-N): 28.5 µM
TGI (OVCAR-5 ovarian): 29.7 µM
TGI (SNB-75 CNS): 22.6 µM
TGI (NCI-H460 lung): 36.3 µM
TGI (HL-60(TB) leukemia): 5.86 µM
TGI (RPMI-8226 leukemia): 32 µM
TGI (HT29 colon): 32.9 µM
TGI (KM12 colon): 50.1 µM
TGI (SK-MEL-5 melanoma): 27.5 µM
TGI (MALME-3M melanoma): 41.9 µM
TGI (NCI-H226 lung): 47 µM
TGI (IGROV1 ovarian): 26.6 µM
TGI (786-0 renal): 30.3 µM
TGI (HOP-92 NSCLC): 31.6 µM
TGI (M14 melanoma): 46.1 µM
TGI (SK-MEL-2 melanoma): 35.9 µM
TGI (ACHN renal): 30.1 µM
TGI (SNB-19 CNS): 27.7 µM
TGI (UACC-257 melanoma): 32 µM
TGI (HCC-2998 colon): 39.6 µM
TGI (SR leukemia): 27 µM
TGI (RXF 393 renal): 18 µM
TGI (U251 CNS): 26.6 µM
TGI (HCT-116 colon): 25.4 µM
TGI (SN12C renal): 29.5 µM
TGI (TK-10 renal): 36.8 µM
TGI (BT-549 breast): 15.4 µM
TGI (MOLT-4 leukemia): 37.8 µM
TGI (MDA-MB-231 breast): 32.3 µM
TGI (SW-620 colon): 41.4 µM
TGI (HOP-62 NSCLC): 52.7 µM
TGI (NCI-H23 lung): 32.7 µM
TGI (T-47D breast): 18.7 µM
TGI (PC-3 prostate): 28.3 µM
TGI (OVCAR-8 ovarian): 38.8 µM
TGI (UACC-62 melanoma): 22.3 µM
TGI (HCT-15 colon): 31.4 µM
TGI (COLO 205 colon): 87.6 µM

CC(=O)NNc1nc(C)c(C(=O)/C=C/C=C/c2ccccc2)s1
TGI (SK-MEL-28 melanoma): > 100 µM
TGI (UO-31 renal): > 100 µM
TGI (EKVX NSCLC): > 100 µM
TGI (CCRF-CEM leukemia): > 100 µM
TGI (HS 578T breast): > 100 µM
TGI (A498 renal): > 100 µM
TGI (MCF7 breast): > 100 µM
TGI (OVCAR-4 ovarian): > 100 µM
TGI (MDA-N): > 100 µM
TGI (OVCAR-5 ovarian): > 100 µM
TGI (SNB-75 CNS): > 100 µM
TGI (NCI-H460 lung): > 100 µM
TGI (HL-60(TB) leukemia): > 100 µM
TGI (RPMI-8226 leukemia): > 100 µM
TGI (HT29 colon): > 100 µM
TGI (KM12 colon): > 100 µM
TGI (SK-MEL-5 melanoma): > 100 µM
TGI (MALME-3M melanoma): > 100 µM
TGI (SK-OV-3 ovarian): > 100 µM
TGI (NCI-H226 lung): > 100 µM
TGI (DU-145 prostate): > 100 µM
TGI (LOX IMVI melanoma): > 100 µM
TGI (OVCAR-3 ovarian): > 100 µM
TGI (CAKI-1 renal): > 100 µM
TGI (SF-539 CNS): > 100 µM
TGI (IGROV1 ovarian): > 100 µM
TGI (NCI/ADR-RES ovarian): > 100 µM
TGI (786-0 renal): > 100 µM
TGI (HOP-92 NSCLC): > 100 µM
TGI (M14 melanoma): > 100 µM
TGI (ACHN renal): > 100 µM
TGI (SNB-19 CNS): > 100 µM
TGI (UACC-257 melanoma): > 100 µM
TGI (HCC-2998 colon): > 100 µM
TGI (SR leukemia): > 100 µM
TGI (MDA-MB-435): > 100 µM
TGI (U251 CNS): > 100 µM
TGI (SF-295 CNS): > 100 µM
TGI (HCT-116 colon): > 100 µM
TGI (SN12C renal): > 100 µM
TGI (TK-10 renal): > 100 µM
TGI (BT-549 breast): > 100 µM
TGI (MOLT-4 leukemia): > 100 µM
TGI (MDA-MB-231 breast): > 100 µM
TGI (SW-620 colon): > 100 µM
TGI (SF-268 CNS): > 100 µM
TGI (HOP-62 NSCLC): > 100 µM
TGI (NCI-H23 lung): > 100 µM
TGI (NCI-H522 lung): > 100 µM
TGI (T-47D breast): > 100 µM
TGI (OVCAR-8 ovarian): > 100 µM
TGI (UACC-62 melanoma): > 100 µM
TGI (HCT-15 colon): > 100 µM
TGI (COLO 205 colon): > 100 µM
